Legend:
[1] = target: T1, Poly [ADP-ribose] polymerase tankyrase-2 (Homo sapiens, UniProt Q9H2K2); assay: Biochemical Assay: The autoparsylation activity of the TNKS 1/2 or PARP1/2 enzymes was measured by the liquid chromatography-mass spectrometry (LC/MS) detection of nicotinamide as readout. Compound activity in inhibiting the TNKS and PARP autoparsylation was evaluated by IC50 measurements. In the compound screening assays, the reaction is composed of 5 uL of compound in […]-point serial …
T1 sequence (Q9H2K2 whole entry): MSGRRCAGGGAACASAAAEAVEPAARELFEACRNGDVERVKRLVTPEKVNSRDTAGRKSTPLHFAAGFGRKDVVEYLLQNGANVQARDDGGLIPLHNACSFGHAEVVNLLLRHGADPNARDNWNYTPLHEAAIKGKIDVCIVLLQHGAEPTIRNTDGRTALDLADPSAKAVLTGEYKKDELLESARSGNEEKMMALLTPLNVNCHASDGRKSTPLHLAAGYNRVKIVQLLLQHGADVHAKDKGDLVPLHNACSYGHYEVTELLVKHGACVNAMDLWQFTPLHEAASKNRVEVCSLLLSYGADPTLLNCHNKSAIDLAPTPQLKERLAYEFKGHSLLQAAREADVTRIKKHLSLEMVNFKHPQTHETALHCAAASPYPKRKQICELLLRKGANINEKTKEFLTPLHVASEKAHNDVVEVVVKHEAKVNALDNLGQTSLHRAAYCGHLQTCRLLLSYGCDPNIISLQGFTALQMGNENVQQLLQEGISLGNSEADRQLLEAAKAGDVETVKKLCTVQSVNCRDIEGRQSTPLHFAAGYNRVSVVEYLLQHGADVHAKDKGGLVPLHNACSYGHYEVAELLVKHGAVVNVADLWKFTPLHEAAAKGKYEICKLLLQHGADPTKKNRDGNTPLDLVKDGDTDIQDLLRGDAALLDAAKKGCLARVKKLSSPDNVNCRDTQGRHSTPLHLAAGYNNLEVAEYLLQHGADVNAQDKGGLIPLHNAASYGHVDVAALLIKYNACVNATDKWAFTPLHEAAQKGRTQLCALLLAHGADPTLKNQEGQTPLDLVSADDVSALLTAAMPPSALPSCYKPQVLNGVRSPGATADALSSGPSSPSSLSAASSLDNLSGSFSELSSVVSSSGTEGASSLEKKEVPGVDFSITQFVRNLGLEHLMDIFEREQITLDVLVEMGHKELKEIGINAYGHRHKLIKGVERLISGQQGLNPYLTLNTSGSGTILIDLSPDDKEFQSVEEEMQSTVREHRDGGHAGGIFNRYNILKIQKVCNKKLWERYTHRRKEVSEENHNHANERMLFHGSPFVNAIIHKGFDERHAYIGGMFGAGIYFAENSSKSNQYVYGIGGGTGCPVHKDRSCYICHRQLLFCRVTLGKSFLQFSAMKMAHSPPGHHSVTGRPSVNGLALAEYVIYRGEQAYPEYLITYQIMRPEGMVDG

[2] = target: T2, Poly [ADP-ribose] polymerase tankyrase-1 (Homo sapiens, UniProt O95271); assay: as above
T2 sequence (O95271 whole entry): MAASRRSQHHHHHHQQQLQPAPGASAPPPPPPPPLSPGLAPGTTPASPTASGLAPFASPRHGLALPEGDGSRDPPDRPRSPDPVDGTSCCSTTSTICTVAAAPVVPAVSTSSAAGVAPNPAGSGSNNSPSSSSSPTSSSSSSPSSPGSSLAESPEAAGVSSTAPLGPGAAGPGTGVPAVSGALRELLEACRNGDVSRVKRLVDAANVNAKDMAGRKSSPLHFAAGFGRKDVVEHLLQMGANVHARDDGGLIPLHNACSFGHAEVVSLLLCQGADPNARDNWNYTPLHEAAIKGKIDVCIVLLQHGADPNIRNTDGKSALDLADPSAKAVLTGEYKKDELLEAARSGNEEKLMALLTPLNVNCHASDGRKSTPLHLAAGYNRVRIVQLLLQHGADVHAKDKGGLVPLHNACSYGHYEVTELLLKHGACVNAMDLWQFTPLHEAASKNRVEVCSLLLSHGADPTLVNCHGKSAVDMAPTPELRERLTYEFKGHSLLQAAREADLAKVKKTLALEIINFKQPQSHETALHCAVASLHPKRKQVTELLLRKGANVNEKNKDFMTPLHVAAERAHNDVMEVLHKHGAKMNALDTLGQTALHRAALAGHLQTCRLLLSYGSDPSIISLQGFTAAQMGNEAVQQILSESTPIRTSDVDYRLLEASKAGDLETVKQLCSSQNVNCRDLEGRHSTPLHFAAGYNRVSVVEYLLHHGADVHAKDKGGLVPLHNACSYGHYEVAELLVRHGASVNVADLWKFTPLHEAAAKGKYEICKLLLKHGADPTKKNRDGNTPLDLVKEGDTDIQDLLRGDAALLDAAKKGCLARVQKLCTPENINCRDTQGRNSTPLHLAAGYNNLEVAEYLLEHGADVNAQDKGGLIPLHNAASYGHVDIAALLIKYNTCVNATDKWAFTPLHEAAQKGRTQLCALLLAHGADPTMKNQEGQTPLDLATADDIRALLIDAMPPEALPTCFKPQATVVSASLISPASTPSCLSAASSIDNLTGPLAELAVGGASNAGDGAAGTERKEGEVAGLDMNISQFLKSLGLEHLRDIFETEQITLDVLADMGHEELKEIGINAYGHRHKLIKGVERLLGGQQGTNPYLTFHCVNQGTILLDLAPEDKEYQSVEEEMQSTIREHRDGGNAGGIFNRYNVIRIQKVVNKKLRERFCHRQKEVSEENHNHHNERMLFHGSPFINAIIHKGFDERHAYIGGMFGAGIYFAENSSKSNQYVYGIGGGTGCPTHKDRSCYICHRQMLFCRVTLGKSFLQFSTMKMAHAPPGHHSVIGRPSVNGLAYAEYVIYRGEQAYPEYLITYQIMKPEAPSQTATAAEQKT

IC50 [1] [nM] | IC50 [2] [µM] | Structure (SMILES)
910 | 5.12 | O=c1[nH]c(CN(Cc2cccs2)S(=O)(=O)CCc2ccccc2)nc2c1COCC2
177 | 1.16 | O=c1[nH]c(CN(Cc2cccs2)S(=O)(=O)Cc2ccccc2)nc2c1COCC2
1580 | 6.4 | O=C(CCc1c[nH]c2ccccc12)N(Cc1nc2c(c(=O)[nH]1)COCC2)Cc1cccs1
